Assay results taken from PubChem BioAssay AID1259407 (Chemical Carcinogenesis Research Information System (CCRIS), 2018).
Activity calls are given as the source filed them. How the calls were made is not given here.

Test system: CCRIS mutagenicity, Ames/micronucleus/aberration tests
Assay: CCRIS mutagenicity studies
[1] = Test System: AMES SALMONELLA TYPHIMURIUM, Strain/Indicator: TA100, Metabolic Activation: NONE, Method: PREINCUBATION
[2] = Test System: AMES SALMONELLA TYPHIMURIUM, Strain/Indicator: TA1537, Metabolic Activation: NONE, Method: PREINCUBATION

In the case of `O=C/C=C/c1ccccc1`, the mutagenic call (End Point: IN VITRO CHROMOSOMAL ABERRATIONS, Test System: CHINESE HAMSTER OVARY CELLS, Metabolic Activation: NONE) is reported as “inactive; negative”, the mutagenic call (End Point: IN VITRO CHROMOSOMAL ABERRATIONS, Test System: CHINESE HAMSTER OVARY CELLS, Metabolic Activation: RAT, LIVER, S-9, AROCLOR 1254) is reported as “inactive; negative” and the mutagenic call (End Point: IN VIVO MICRONUCLEUS, Test System: BONE MARROW POLYCHROMATIC ERYTHROCYTES, Species: MOUSE, Strain/Sex: DDY/MALE, Route: IP) is reported as “inactive; negative”. For the same compound, the mutagenic call (Test System: AMES SALMONELLA TYPHIMURIUM, Strain/Indicator: TA97, Metabolic Activation: NONE, Method: PREINCUBATION (120 MIN)) was “inactive; negative”, the mutagenic call (Test System: AMES SALMONELLA TYPHIMURIUM, Strain/Indicator: TA97, Metabolic Activation: S-9, Method: PREINCUBATION (120 MIN)) was “inactive; negative” and the mutagenic call (Test System: AMES SALMONELLA TYPHIMURIUM, Strain/Indicator: TA98, Metabolic Activation: HAMSTER, LIVER, S-9, AROCLOR 1254 (2.5-20%), Method: PREINCUBATION) was “inactive; negative”. For the same compound, the mutagenic call (Test System: AMES SALMONELLA TYPHIMURIUM, Strain/Indicator: TA98, Metabolic Activation: HAMSTER, LIVER, S-9, AROCLOR 1254, Method: STANDARD PLATE) was “inactive; negative”, the mutagenic call (Test System: AMES SALMONELLA TYPHIMURIUM, Strain/Indicator: TA98, Metabolic Activation: NONE, Method: PREINCUBATION (120 MIN)) was “inactive; negative” and the mutagenic call (Test System: AMES SALMONELLA TYPHIMURIUM, Strain/Indicator: TA98, Metabolic Activation: NONE, Method: STANDARD PLATE) was “inactive; negative”. For the same compound, the mutagenic call (Test System: AMES SALMONELLA TYPHIMURIUM, Strain/Indicator: TA98, Metabolic Activation: RAT, LIVER, S-9, AROCLOR 1254, Method: STANDARD PLATE) was “inactive; negative”, the mutagenic call (Test System: AMES SALMONELLA TYPHIMURIUM, Strain/Indicator: TA98, Metabolic Activation: S-9, Method: PREINCUBATION (120 MIN)) was “inactive; negative” and the mutagenic call (Test System: AMES SALMONELLA TYPHIMURIUM, Strain/Indicator: TA100, Metabolic Activation: HAMSTER, LIVER, S-9, AROCLOR 1254 (2.5-20%), Method: PREINCUBATION) was “inactive; negative”. The mutagenic call (Test System: AMES SALMONELLA TYPHIMURIUM, Strain/Indicator: TA100, Metabolic Activation: HAMSTER, LIVER, S-9, AROCLOR 1254, Method: STANDARD PLATE) was “inactive; negative”, the mutagenic call [1] was “inactive; negative” and the mutagenic call (Test System: AMES SALMONELLA TYPHIMURIUM, Strain/Indicator: TA100, Metabolic Activation: NONE, Method: PREINCUBATION (120 MIN)) was “inactive; negative”. The mutagenic call (Test System: AMES SALMONELLA TYPHIMURIUM, Strain/Indicator: TA100, Metabolic Activation: NONE, Method: STANDARD PLATE) was “inactive; negative”, the mutagenic call (Test System: AMES SALMONELLA TYPHIMURIUM, Strain/Indicator: TA100, Metabolic Activation: RAT LIVER S-9, AROCLOR 1254, Method: PREINCUBATION) was “inactive; negative” and the mutagenic call (Test System: AMES SALMONELLA TYPHIMURIUM, Strain/Indicator: TA100, Metabolic Activation: RAT, LIVER, S-9, AROCLOR 1254, Method: PREINCUBATION) was “inactive; negative”. The mutagenic call (Test System: AMES SALMONELLA TYPHIMURIUM, Strain/Indicator: TA100, Metabolic Activation: RAT, LIVER, S-9, AROCLOR 1254, Method: STANDARD PLATE) was “inactive; negative”, the mutagenic call (Test System: AMES SALMONELLA TYPHIMURIUM, Strain/Indicator: TA100, Metabolic Activation: S-9, Method: PREINCUBATION (120 MIN)) was “inactive; negative” and the mutagenic call (Test System: AMES SALMONELLA TYPHIMURIUM, Strain/Indicator: TA102, Metabolic Activation: HAMSTER, LIVER, S-9, AROCLOR 1254, Method: PREINCUBATION) was “inactive; negative”. The mutagenic call (Test System: AMES SALMONELLA TYPHIMURIUM, Strain/Indicator: TA102, Metabolic Activation: MOUSE LIVER S-9, AROCLOR 1254, Method: PREINCUBATION) was “inactive; negative”, the mutagenic call (Test System: AMES SALMONELLA TYPHIMURIUM, Strain/Indicator: TA102, Metabolic Activation: NONE, Method: PREINCUBATION) was “inactive; negative” and the mutagenic call (Test System: AMES SALMONELLA TYPHIMURIUM, Strain/Indicator: TA102, Metabolic Activation: RAT LIVER S-9, AROCLOR 1254, Method: PREINCUBATION) was “inactive; negative”. The mutagenic call (Test System: AMES SALMONELLA TYPHIMURIUM, Strain/Indicator: TA102, Metabolic Activation: RAT, LIVER, S-9, AROCLOR 1254, Method: PREINCUBATION) was “inactive; negative”, the mutagenic call (Test System: AMES SALMONELLA TYPHIMURIUM, Strain/Indicator: TA104, Metabolic Activation: MOUSE LIVER S-9, AROCLOR 1254, Method: PREINCUBATION) was “inactive; negative” and the mutagenic call (Test System: AMES SALMONELLA TYPHIMURIUM, Strain/Indicator: TA104, Metabolic Activation: NONE, Method: PREINCUBATION) was “inactive; negative”. For the same compound, the mutagenic call (Test System: AMES SALMONELLA TYPHIMURIUM, Strain/Indicator: TA104, Metabolic Activation: RAT LIVER S-9, AROCLOR 1254, Method: PREINCUBATION) was “inactive; negative”, the mutagenic call (Test System: AMES SALMONELLA TYPHIMURIUM, Strain/Indicator: TA1535, Metabolic Activation: HAMSTER, LIVER, S-9, AROCLOR 1254, Method: STANDARD PLATE) was “inactive; negative” and the mutagenic call (Test System: AMES SALMONELLA TYPHIMURIUM, Strain/Indicator: TA1535, Metabolic Activation: NONE, Method: STANDARD PLATE) was “inactive; negative”. The mutagenic call (Test System: AMES SALMONELLA TYPHIMURIUM, Strain/Indicator: TA1535, Metabolic Activation: RAT, LIVER, S-9, AROCLOR 1254, Method: STANDARD PLATE) was “inactive; negative”, the mutagenic call (Test System: AMES SALMONELLA TYPHIMURIUM, Strain/Indicator: TA1537, Metabolic Activation: HAMSTER, LIVER, S-9, AROCLOR 1254, Method: STANDARD PLATE) was “inactive; negative” and the mutagenic call [2] was “inactive; negative”. For the same compound, the mutagenic call (Test System: AMES SALMONELLA TYPHIMURIUM, Strain/Indicator: TA1537, Metabolic Activation: NONE, Method: STANDARD PLATE) was “inactive; negative”, the mutagenic call (Test System: AMES SALMONELLA TYPHIMURIUM, Strain/Indicator: TA1537, Metabolic Activation: RAT, LIVER, S-9, AROCLOR 1254, Method: STANDARD PLATE) was “inactive; negative” and the mutagenic call (Test System: AMES SALMONELLA TYPHIMURIUM, Strain/Indicator: TA1538, Metabolic Activation: HAMSTER, LIVER, S-9, AROCLOR 1254, Method: STANDARD PLATE) was “inactive; negative”. For the same compound, the mutagenic call (Test System: AMES SALMONELLA TYPHIMURIUM, Strain/Indicator: TA1538, Metabolic Activation: NONE, Method: STANDARD PLATE) was “inactive; negative”, the mutagenic call (Test System: AMES SALMONELLA TYPHIMURIUM, Strain/Indicator: TA1538, Metabolic Activation: RAT, LIVER, S-9, AROCLOR 1254, Method: STANDARD PLATE) was “inactive; negative” and the mutagenic call (Test System: MOUSE LYMPHOMA, Strain/Indicator: L5178Y (TK+/TK-), Metabolic Activation: NONE, Method: SUSPENSION/PLATE) was “active; positive. reevaluation of results: positive”. The mutagenic call (Test System: MOUSE LYMPHOMA, Strain/Indicator: L5178Y (TK+/TK-), Metabolic Activation: RAT, LIVER, S-9, AROCLOR 1254, Method: SUSPENSION/PLATE) was “active; positive. reevaluation of results: positive”.

For `CC(C)c1ccccc1O`, the mutagenic call (Test System: AMES SALMONELLA TYPHIMURIUM, Strain/Indicator: TA98, Metabolic Activation: NONE, Method: PREINCUBATION) was “inactive; negative”, the mutagenic call (Test System: AMES SALMONELLA TYPHIMURIUM, Strain/Indicator: TA98, Metabolic Activation: RAT LIVER S-9, PHENOBARBITAL AND BETA-NAPHTHOFLAVONE, Method: PREINCUBATION) was “inactive; negative” and the mutagenic call [1] was “inactive; negative”. For the same compound, the mutagenic call (Test System: AMES SALMONELLA TYPHIMURIUM, Strain/Indicator: TA100, Metabolic Activation: RAT LIVER S-9, PHENOBARBITAL AND BETA-NAPHTHOFLAVONE, Method: PREINCUBATION) was “inactive; negative”, the mutagenic call (Test System: AMES SALMONELLA TYPHIMURIUM, Strain/Indicator: TA1535, Metabolic Activation: NONE, Method: PREINCUBATION) was “inactive; negative” and the mutagenic call (Test System: AMES SALMONELLA TYPHIMURIUM, Strain/Indicator: TA1535, Metabolic Activation: RAT LIVER S-9, PHENOBARBITAL AND BETA-NAPHTHOFLAVONE, Method: PREINCUBATION) was “inactive; negative”. For the same compound, the mutagenic call [2] was “inactive; negative”, the mutagenic call (Test System: AMES SALMONELLA TYPHIMURIUM, Strain/Indicator: TA1537, Metabolic Activation: RAT LIVER S-9, PHENOBARBITAL AND BETA-NAPHTHOFLAVONE, Method: PREINCUBATION) was “inactive; negative” and the mutagenic call (Test System: E.COLI, Strain/Indicator: WP2UVRA/PKM101, Metabolic Activation: NONE, Method: PREINCUBATION) was “inactive; negative”. The mutagenic call (Test System: E.COLI, Strain/Indicator: WP2UVRA/PKM101, Metabolic Activation: RAT LIVER S-9, PHENOBARBITAL AND BETA-NAPHTHOFLAVONE, Method: PREINCUBATION) was “inactive; negative”.
